Laboratory results published in PubChem BioAssay (NCI).
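48-hour exposure; five concentrations; linearly interpolated endpoints. TGI: total growth inhibition.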

Key:
Experiment in all cases: NCI-60 cell line screen, 48 h
IGROV1 ovarian = tested on: IGROV1 ovarian
SNB-75 CNS = tested on: SNB-75 CNS
MDA-MB-435 = tested on: MDA-MB-435
M14 melanoma = tested on: M14 melanoma
COLO 205 colon = tested on: COLO 205 colon
A549 NSCLC = tested on: A549 NSCLC
HCC-2998 colon = tested on: HCC-2998 colon
SF-268 CNS = tested on: SF-268 CNS
SR leukemia = tested on: SR leukemia
786-0 renal = tested on: 786-0 renal

Compound | TGI (IGROV1 ovarian) [µM] | TGI (SNB-75 CNS) [µM] | TGI (MDA-MB-435) [µM] | TGI (M14 melanoma) [µM] | TGI (COLO 205 colon) [µM] | TGI (A549 NSCLC) [µM] | TGI (HCC-2998 colon) [µM] | TGI (SF-268 CNS) [µM] | TGI (SR leukemia) [µM] | TGI (786-0 renal) [µM]
CCCC1NC(C#N)(C#N)C(CCC)NC1(C#N)C#N (stereo not drawn) | > 62.2 | > 41.1 | 26.8 | > 60.6 | 12.7 | > 100 | > 58.2 | > 48.7 | 1.49 | > 33.5
CSC1=Nc2ccccc2-c2nc(-c3ccccc3)cc(-c3ccccc3)c2C1 | 32.1 | 16.8 | > 100 | 37.1 | > 100 | > 100 | > 100 | – | > 100 | 26
[O-][n+]1onc2c3nn(-c4ccccc4)nc3ccc21 | > 100 | > 100 | > 100 | > 100 | > 100 | > 100 | 44.9 | > 100 | > 75.1 | > 100
Cc1c(-c2ccccc2)c(C#N)c2nnn(-c3ccccc3)c(=O)n12 | > 100 | > 100 | > 100 | > 100 | > 100 | > 100 | > 100 | > 100 | > 100 | > 100
c1ccc2c(c1)c1c(n2CCOCCN2CCCCC2)CCCC1 | 28.1 | 26.7 | 26.6 | 25.7 | 26 | 30.1 | 23.6 | 37.7 | 36 | 26.4
O=C1NN=C(c2ccc(Cl)cc2)CC1C1C(=O)N(c2ccccc2)N=C1c1ccccc1 (stereo not drawn) | > 100 | > 100 | 77.4 | > 100 | > 100 | > 100 | 91.7 | > 100 | > 100 | 63.2
COc1cc(C2c3cc4c(cc3C(O)C3CCC(=O)N23)OCO4)cc(OC)c1OC (stereo not drawn) | > 100 | > 100 | 18 | > 100 | > 100 | > 100 | > 100 | > 100 | > 100 | > 100
CC(=O)Nc1ccc(S(=O)(=O)Nc2nnc(S(N)(=O)=O)s2)cc1 | – | > 100 | > 100 | > 100 | > 100 | > 100 | > 100 | > 100 | > 100 | > 100
CC1(C)C2CCC1(CS(=O)(=O)Nc1ccccc1)C(=O)C2 (stereo not drawn) | > 100 | > 100 | > 100 | > 100 | > 100 | > 100 | > 100 | > 100 | > 100 | > 100
